Laboratory results from US20230255990A1, “USE OF 2'-FL FOR TREATMENT OF SYMPTOMS ASSOCIATED WITH AUTISM SPECTRUM DISORDER” (Glycosyn LLC, priority 2020, published 2023).

Columns and labels:
mouse model for ASD = assay: Sociality (aggregons) in mouse model for ASD, pups of antibiotic-treated mothers; format: in vivo
From the text: ASD is a neurobehavioral disorder in which affected individuals have persistent deficits in social communication and interaction (symptom of ASD). To address the impact of 2′-FL administration on social communication and interaction, a mouse model for ASD was designed and experiments conducted to study ASD-associated neurobehavioral disorders such as interpersonal sociality. A depiction of the system used for scoring contact behavior was adapted from known method, e.g., that described by Harshaw, C. et al. (2014). “Sex Differences in Thermogenesis Structure Behavior and Contact within Huddles of Infant Mice.” Plos One, 9(1), 1-15 and Sokoloff G, Blumberg M S. Competition and cooperation among huddling infant rats. Dev Psychobiol. 2001 September; 39(2):65-75. doi: 10.1002/dev.1030, Erratum in: Dev Psychobiol 2001 November; 39(3):229.
The question to be addressed was whether providing 2′-FL rescues the normal sociality of mouse pups whose social interaction was perturbed. Perturbation of behavior was achieved by antibiotic treatment of their mothers using a method previously developed and validated. Sociality is measured by objective measurement of “aggregons” which means the (a) huddling of dams and pups or (b) pups only in groups.
The mouse experiment involved 22 mother-pup litters including a control group (n=7 litters with 28 pups), an antibiotic treated group (7 litters with 28 pups), and a 2′-FL treated group (8 litters with 32 pups).
Mothers were treated with an antibiotic cocktail, starting from gestational day 12; delivery was on day 20. Antibiotic use was continued for mothers postpartum. Treatment of 2′-FL was given to mothers and pups through their water intake. Sociality was measured at night, as mice are nocturnal animals, using the mean number of aggregons (social groupings). Aggregons could consist of individual mice only if they were not huddled with other mice, or they could be a group defined as either one or more pups with the dam, or two or more pups without the dam. The outcome of the experiment was measured on postpartum day 7. […]

[1] = tested on: gastrointestinal mitochondrial function; conditions: murine model; pathways of electron transport chain, oxidative phosphorylation, protein targeting to the mitochondrion; cited from earlier work
[2] = tested on: IL-10 and inflammatory cytokine expression; conditions: 2′-FL alone or as part of an HMO mixture, pre-clinical studies; cited from earlier work
bifidobacteria = conditions: alone or in combination with other HMOs; cited from earlier work

2′-fucosyllactose [2′-FL]
pup-only aggregons, pattern by experimental group (mouse model for ASD; night 7, p<0.05, 2′-FL group follows the pattern of the controls): This pattern in the aggregons by experimental group was also observed
marginal mean of aggregons including dams (mouse model for ASD; night 7 postpartum, 2′-FL via water intake to mothers and pups, antibiotic-treated group 41, controls 26, lower number = more sociality): 25 aggregons
sociality of antibiotic-treated mice (dams and their offspring) (mouse model for ASD; postpartum day 7): normal sociality was rescued
gastrointestinal mitochondrial function [1]: increase gastrointestinal mitochondrial function
IL-10 [2]: increase IL-10
inflammatory cytokine expression [2]: decrease inflammatory cytokine expression
growth and relative abundance of bifidobacteria (bifidobacteria): increases the growth and relative abundance of bifidobacteria
